Source: patent US8143403B2 (Bristol-Myers Squibb Company, priority 2008, dated 2012)
Marks after values point to notes of the source that are not given here. No end group written: not given here.

Columns and labels:
[1] = system: i.v. hαCGRP-induced increase in middle meningeal artery diameter and facial blood flow; assay: Validation of facial blood flow as surrogate for intracranial artery dilation in the rat; assay type: in vivo; conditions: pretreatment, n=5 rats
[2] = system: CGRP-induced increase in laser Doppler facial blood flow; assay: Inhibition of CGRP-induced increase in laser Doppler facial blood flow in non-human primate; assay type: in vivo, common marmoset (Callithrix jacchus)
Protocol: FIG. 4. […] Data are peak % change from baseline±sem, with each animal serving as its own control.
Saturation/Scatchard Analysis. […] Saturation data were analyzed using a one site binding equation to estimate apparent equilibrium dissociation constant (Kd) and the maximum number of binding sites (Bmax) (Prizm v4.0, Graphpad). […] Functional Antagonism/Schild analysis. Agonist stimulation of CGRP receptor complex leads to cyclic AMP (adenosine 3′5′-cyclic monophosphate) production via Gs-dependent activation of an adenylate cyclase (Juaneda C et al., TiPS, 2000; 21:432-438). Consequently, CGRP receptor antagonists inhibit CGRP-induced cyclic AMP formation in SK-N-MC cells which natively express the CGRP receptor complex (Doods H et al., Br J Pharmacol, 2000; 129(3):420-423). […] A Schild analysis format was used, which allowed investigation of the mechanism of antagonism. […] Various concentrations of CGRP were added and the cells were allowed to incubate 30 min at room temperature. The cells were lysed with lysis reagent and cAMP concentrations were determined by HTRF according to the manufacturer's instructions. A standard curve using known quantities of cAMP was evaluated in parallel to allow conversion of HTRF ratio to nM cAMP. The resulting curves were then evaluated using a Gaddum/Schild equation individually and with global fitting (Prizm v4.0, Graphpad). […] To obtain a global fit the following parameters were shared (top, bottom, logEC50, Hill slope and pA2) and all curves were fit simultaneously. […] Non-Terminal Method for Assessing In Vivo Efficacy of Small Molecule CGRP-Receptor Antagonists in Mammals Overview. […] Non-human primates (e.g., marmosets) are the only animals known to have human-like CGRP receptor pharmacology conferred by the presence of the specific amino acid residue (Trp74) in their RAMP1 sequence which is responsible for the phenotype of the human receptor (Mallee et al. J Biol Chem 2002 277:14294). Since current migraine models primarily use rats (Escott et al. Brain Res 1995 669:93; Williamson et al. Cephalalgia 1997 17:525), or are invasive, terminal procedures in primates (Doods et al. Br J Pharmacol 2000 129:420), a novel non-invasive, survival model in non-human primates for in vivo efficacy assessment of CGRP-receptor antagonists was developed. […] Peptide and small-molecule CGRP-receptor antagonists were used to validate the non-human primate model. […] Animals. Adult male and female common marmosets (Callithrix jacchus) purchased from Harlan and weighing 350-550 g served as subjects. Anesthesia & Surgical Preparation. Animals are anesthetized by isoflurane inhalation in an induction chamber (4-5% rapid induction, maintained with 1-2.5%; Solomon et al., 1999).

haCGRP(8-37): peptide antagonist, peptide fragment CGRP(8-37) (VTHRLAGLLSRSGGVVKNNFVPTNVGSKAF; ends and bridges not checked; UniProt P06881 90-119, looked up, fragment) [reference compound]
inhibition of i.v. hαCGRP-induced increase in facial blood flow [1]: 50% | inhibition of i.v. hαCGRP-induced increase in middle meningeal artery diameter [1]: 50% | % Inhibition ([2]; 1 mg/kg i.v., pretreat 0 min, 15 min, hαCGRP 10 μg/kg i.v.): 87.2* % | inhibition of i.v. CGRP-stimulated increases in primate facial blood flow ([2]; pre-treatment): dose-dependently inhibited
